# Measurements published in patent EP0233459A1, “Medicament containing a magnesium-urea complex of acetylsalicylic acid and process for the preparation of this complex” (ARTIKA INTERNATIONAL (HONG-KONG) LIMITED, priority 1986, dated 1987).
# How the values were obtained:
# [1] = tested on: souris; assay: Hot plate test (analgesic activity); assay type: in vivo; settings: moyenne de dix essais
# Text: Le test dit "de la plaque chauffante" a donc été pratiqué pour déterminer de la valeur de l'ASMU en comparaison avec l'aspirine. Le principe de la méthode consiste à poser une souris sur une plaque dont on a élevé la température en fonction du temps. On note la température à laquelle la souris saute, la sensation de chaleur devenant douleur. Cette température est relativement fixe pour chaque animal.
# En recommançant la même expérience avec la souris après administration d'une dose d'un analgésique, on notera une température plus élevée qui sera fonction de la dose et de l'action antalgique de la substance.
# Dans le tableau V ci-après ont été rassemblés les ré-sultats, correspondants à une moyenne de dix essais obtenus pour l'aspirine (AAS), l'"ASPEGIC" (ASL) et l'ASMU.
# [2] = tested on: oedème provoqué sur patte de rat; assay: Induced rat paw oedema (formol or ovalbumine; tables do not say which); assay type: in vivo; settings: for Δ V1 heure: 1 heure; for Δ V1 heure / Δ V3 heures / VARIATIONS DE VOLUME EXPRIME EN % / INDICE DE PROTECTION: 20 mg/kg en équivalent aspirine; for Δ V3 heures: 3 heures
# Protocol: Deux tests de production d'oedème provoqué sur patte de rat, l'un au formol, et l'autre à l'ovalbumine ont été choisis. Dans les deux cas les mesures ont été opérées en incluant une série d'animaux traitée avec de l'aspirine, en comparaison de celle traitée avec l'ASMU.
# La dose d'anti-inflammatoire est de 20 mg/kg dans les trois cas, en équivalent aspirine.
# [3] = tested on: oreille de lapin; settings: in vivo
# Text: Une expérience a été menée sur lapins, afin de déterminer le temps de saignement modifié par l'administration d'ASMU et d'aspirine à doses équivalentes.
# [4] = même dose d'aspirine, une heure après administration; 60 min; cited from earlier work
# [5] = tested on: muqueuse gastrique; assay type: in vivo, rat
# Text: En addition des résultats obtenus lors de l'étude de la toxicité générale de l'ASMU, une expérimentation particulière a été menée sur le rat pour déterminer de façon plus précise l'action irritant sur la muqueuse gastrique que peut développer l'ASMU par rapport à l'aspirine.
# Le rat placé dans des conditions de contrainte (cage de petite dimension, n'interdisant pas le mouvement, mais empêchant l'animal de se déplacer et même de se retourner) pendant une durée de douze heures pendant plusieurs jours, développe rapidement une irritation de l'estomac qui évolue jusqu'à l'ulcère.
# Sur cet animal sensibilisé, on peut tester, en même temps que la contrainte, l'action de médicaments irritants qui accélèrent le processus de formation de l'ulcère. En fin d'expé-rience, on sacrifie les animaux, et l'examen de la muqueuse gastrique permet de tirer des conclusions sur le pouvoir irritant des substances en comparaison avec les produits de référence.
# [6] = une heure après l'administration, literature knowledge; cited from earlier work
# [7] = aspirine, literature knowledge; cited from earlier work
# [8] = tested on: rat; settings: in vivo
# Text: (§1) Des expérimentations ont été réalisées sur l'ASMU. La toxicité aiguë a été étudiée par la détermination classique de la DL₅₀, correspondant à la dose de substance qui, administrée à un groupe d'animaux, provoque la port de la moitié d'entre eux.
# [9] = tested on: souris; settings: in vivo
# Text: as §1
# [10] = in vivo
# [11] = pH of the aqueous solution; assay type: physicochemical; settings: solution aqueuse, dix pour cent (p/v)
# Text: La solution aqueuse du complexe ASMU, à concentration de dix pour cent (p/v), présente une valeur de pH très proche de 6, donc proche de la neutralité et tout à fait compatible avec celui du pH sanguin.
# [12] = tested on: ostéochondrites déformantes infectieuses; assay: Therapeutic use in infectious deforming osteochondritis; assay type: in vivo; settings: tous les cas traités
# Text: A titre d'exemple d'application thérapeutique inhabituelle, on a pu observer l'action curative de l'ASMU dans le traitement d'ostéochondrites déformantes infectieuses. […] Seule la déformation a persisté lorsqu'elle existait, comme on pouvait s'y attendre.
# [13] = human, in vivo, po, 5 h
# [14] = tested on: rat; settings: in vivo; remark: listed apart in the source
# [15] = état sec
# [16] = tested on: porc; settings: in vivo
# [17] = in vivo; remark: listed apart in the source
# Text: L'étude de la biodisponibilité de l'ASMU a été effec­tuée sur diverses espèces animales et sur l'homme, en réalisant des dosages de la forme acétylée et désacétylée dans le temps.
smiles,measurement,setting,value
CC(=O)Oc1ccccc1C(=O)O [A S L],Δt(°C),[1]; 1 heure après administration,"2,15 °C"
same,Δt(°C),[1]; 2 heures après administration,"1,90 °C"
same,Δt(°C),[1]; 3 heures après administration,"0,45 °C"
same,Δt(°C),[1]; ½ heure après administration,"1,25 °C"
same,Δ V1 heure,[2]; 20 mg/kg,"0,490±0,04 cm^3"
same,Δ V3 heures,[2]; 20 mg/kg,"0,700±0,15 cm^3"
same,VARIATIONS DE VOLUME EXPRIME EN %,"[2]; A 1 heure, 20 mg/kg","50,16%"
same,VARIATIONS DE VOLUME EXPRIME EN %,"[2]; A 3 heures, 20 mg/kg","72,29%"
same,INDICE DE PROTECTION,"[2]; à 1 heure, 20 mg/kg",35%
same,INDICE DE PROTECTION,"[2]; à 3 heures, 20 mg/kg",43%
same,ALLONGEMENT DU TEMPS DE SAIGNEMENT,[3],35%
"CC(=O)Oc1ccccc1C(=O)O [AAS, aspirine]",quantités d'aspirine retrouvées dans le sang,[4],~3 mg par litre
same,animaux traités avec ulcères,[5]; rat sous contrainte,80 pour cent
same,Δt(°C),[1]; 1 heure après administration,"1,15 °C"
same,Δt(°C),[1]; 2 heures après administration,"1,40 °C"
same,Δt(°C),[1]; 3 heures après administration,"0,75 °C"
same,Δt(°C),[1]; ½ heure après administration,"0,90 °C"
same,Δ V1 heure,[2]; 20 mg/kg,"0,580±0,03 cm^3"
same,Δ V3 heures,[2]; 20 mg/kg,"0,930±0,05 cm^3"
same,VARIATIONS DE VOLUME EXPRIME EN %,"[2]; A 1 heure, 20 mg/kg",72%
same,VARIATIONS DE VOLUME EXPRIME EN %,"[2]; A 3 heures, 20 mg/kg","115,01%"
same,INDICE DE PROTECTION,"[2]; à 1 heure, 20 mg/kg",7%
same,INDICE DE PROTECTION,"[2]; à 3 heures, 20 mg/kg",10%
same,ALLONGEMENT DU TEMPS DE SAIGNEMENT,[3],66%
same,part de la dose initiale sous la forme acétylée,[6],~10 pour 100
same,part de la dose absorbée par l'organisme,[7],deux tiers
"CC(=O)Oc1ccccc1C(=O)[O-].CC(=O)Oc1ccccc1C(=O)[O-].NC(N)=O.[Mg+2] [ASMU, acétylsalicylate de magnésium-urée]",toxicité aiguë (DL₅₀) diminuée par rapport à l'équivalent aspirine,[8],~20 pour cent
same,toxicité aiguë (DL₅₀) diminuée par rapport à l'équivalent aspirine,[9],~20 pour cent
same,absorption,[10],pratiquement complète
same,pH,[11],~6
same,action curative,[12],"l'inflammation a regressé, puis disparu"
same,acétylsalicylémie,[13],40 mg par litre de plasma
same,irritation de la muqueuse gastrique,"[5]; rat, in vivo","irritation comparable, mais légèrement supérieure à celle des témoins"
same,Δt(°C),[1]; 1 heure après administration,"4,75 °C"
same,Δt(°C),[1]; 2 heures après administration,"4,90 °C"
same,Δt(°C),[1]; 3 heures après administration,"4,90 °C"
same,Δt(°C),[1]; ½ heure après administration,"3,70 °C"
same,Δ V1 heure,[2],"0,150±0,04 cm^3"
same,Δ V3 heures,[2],"0,170±0,03 cm^3"
same,VARIATIONS DE VOLUME EXPRIME EN %,[2]; A 1 heure,"16,48%"
same,VARIATIONS DE VOLUME EXPRIME EN %,[2]; A 3 heures,"18,61%"
same,activité anti-inflammatoire par rapport à celle de l'aspirine,"[2]; en moyenne, tests au formol et à l'ovalbumine",dix fois supérieure
same,INDICE DE PROTECTION,[2]; à 1 heure,"78,6%"
same,INDICE DE PROTECTION,[2]; à 3 heures,"85,4%"
same,ALLONGEMENT DU TEMPS DE SAIGNEMENT,[3],7%
same,toxicité chronique: examens cliniques et anatomopathologiques,[14],n'a pas provoqué d'anomalie particulière
same,toxicité chronique: lésion rénale ou stomacale,[14],aucun signe de lésion rénale ou stomacale
same,durée de conservation sans altération notable,[15],deux ans et demi
same,toxicité chronique: examens cliniques et anatomopathologiques,[16],n'a pas provoqué d'anomalie particulière
same,toxicité chronique: lésion rénale ou stomacale,[16],aucun signe de lésion rénale ou stomacale
same,"acétylsalicylémie, fois plus élevée que celle d'une dose équivalente d'aspirine",[17],entre dix et quinze
same,"salicylémie moyenne, % de la quantité circulante",[17],~10 pour cent
